ChEMBL document CHEMBL3244417, “Potential antitumor agents. 32. Role of agent base strength in the quantitative structure--antitumor relationships for 4'-(9-acridinylamino)methanesulfonanilide analogues” (J Med Chem, 1979)

Assay: physchem
Description: Dissociation constant, pKa of the compound by UV spectrophotometric analysis

pKa | SMILES
7.41 | CCCS(=O)(=O)Nc1ccc(Nc2c3ccccc3nc3ccccc23)c(OC)c1
7.4 | CCS(=O)(=O)Nc1ccc(Nc2c3ccccc3nc3ccccc23)c(OC)c1
7.41 | CCCCS(=O)(=O)Nc1ccc(Nc2c3ccccc3nc3ccccc23)c(OC)c1
7.19 | CCS(=O)(=O)Nc1ccc(Nc2c3ccccc3nc3ccccc23)cc1
7.2 | CCCS(=O)(=O)Nc1ccc(Nc2c3ccccc3nc3ccccc23)cc1
7.18 | CCCCS(=O)(=O)Nc1ccc(Nc2c3ccccc3nc3ccccc23)cc1
7.19 | CCCCCS(=O)(=O)Nc1ccc(Nc2c3ccccc3nc3ccccc23)cc1
7.17 | CCCCCCS(=O)(=O)Nc1ccc(Nc2c3ccccc3nc3ccccc23)cc1
7.35 | CCS(=O)(=O)Nc1ccc(Nc2c3ccccc3nc3cc(NC(C)=O)ccc23)cc1
7.33 | CCCS(=O)(=O)Nc1ccc(Nc2c3ccccc3nc3cc(NC(C)=O)ccc23)cc1
7.32 | CCCCS(=O)(=O)Nc1ccc(Nc2c3ccccc3nc3cc(NC(C)=O)ccc23)cc1
7.35 | CCCCCS(=O)(=O)Nc1ccc(Nc2c3ccccc3nc3cc(NC(C)=O)ccc23)cc1
7.34 | CCCCCCS(=O)(=O)Nc1ccc(Nc2c3ccccc3nc3cc(NC(C)=O)ccc23)cc1
7.34 | COc1cc(NS(C)(=O)=O)ccc1Nc1c2ccccc2nc2ccccc12
7.39 | CCCCCS(=O)(=O)Nc1ccc(Nc2c3ccccc3nc3ccccc23)c(OC)c1
7.42 | CCCCCCS(=O)(=O)Nc1ccc(Nc2c3ccccc3nc3ccccc23)c(OC)c1
6.37 | COc1cc(NS(C)(=O)=O)ccc1Nc1c2ccccc2nc2c(C(N)=O)cccc12
6.35 | CCS(=O)(=O)Nc1ccc(Nc2c3ccccc3nc3c(C(N)=O)cccc23)c(OC)c1
6.35 | CCCS(=O)(=O)Nc1ccc(Nc2c3ccccc3nc3c(C(N)=O)cccc23)c(OC)c1
6.34 | CCCCS(=O)(=O)Nc1ccc(Nc2c3ccccc3nc3c(C(N)=O)cccc23)c(OC)c1
6.36 | CCCCCS(=O)(=O)Nc1ccc(Nc2c3ccccc3nc3c(C(N)=O)cccc23)c(OC)c1
7.7 | NC(=O)CCCCc1ccc(Nc2c3ccccc3nc3ccccc23)cc1
7.7 | NC(=O)CCCCCc1ccc(Nc2c3ccccc3nc3ccccc23)cc1
7.7 | NC(=O)CCCCCCCc1ccc(Nc2c3ccccc3nc3ccccc23)cc1

pKa | SMILES
7.7 | NC(=O)CCCCCCCCc1ccc(Nc2c3ccccc3nc3ccccc23)cc1
7.67 | NC(=O)CCCc1ccc(Nc2c3ccccc3nc3ccccc23)cc1
7.7 | NC(=O)CCCCCCc1ccc(Nc2c3ccccc3nc3ccccc23)cc1
7.42 | CCCCCCCS(=O)(=O)Nc1ccc(Nc2c3ccccc3nc3ccccc23)c(OC)c1
7.44 | CCCCCCCCS(=O)(=O)Nc1ccc(Nc2c3ccccc3nc3ccccc23)c(OC)c1
7.56 | COc1cc(NS(C)(=O)=O)ccc1Nc1c2ccccc2nc2cc(NC(C)=O)ccc12
7.54 | CCS(=O)(=O)Nc1ccc(Nc2c3ccccc3nc3cc(NC(C)=O)ccc23)c(OC)c1
7.57 | CCCS(=O)(=O)Nc1ccc(Nc2c3ccccc3nc3cc(NC(C)=O)ccc23)c(OC)c1
7.56 | CCCCS(=O)(=O)Nc1ccc(Nc2c3ccccc3nc3cc(NC(C)=O)ccc23)c(OC)c1
7.54 | CCCCCS(=O)(=O)Nc1ccc(Nc2c3ccccc3nc3cc(NC(C)=O)ccc23)c(OC)c1
7.54 | CCCCCCS(=O)(=O)Nc1ccc(Nc2c3ccccc3nc3cc(NC(C)=O)ccc23)c(OC)c1
7.55 | CCCCCCCS(=O)(=O)Nc1ccc(Nc2c3ccccc3nc3cc(NC(C)=O)ccc23)c(OC)c1
7.39 | COc1ccc2c(Nc3ccc(NS(C)(=O)=O)cc3OC)c3ccccc3nc2c1
7.36 | CCS(=O)(=O)Nc1ccc(Nc2c3ccccc3nc3cc(OC)ccc23)c(OC)c1
7.38 | CCCS(=O)(=O)Nc1ccc(Nc2c3ccccc3nc3cc(OC)ccc23)c(OC)c1
7.35 | CCCCS(=O)(=O)Nc1ccc(Nc2c3ccccc3nc3cc(OC)ccc23)c(OC)c1
7.37 | CCOc1ccc2c(Nc3ccc(NS(C)(=O)=O)cc3OC)c3ccccc3nc2c1
7.36 | CCCOc1ccc2c(Nc3ccc(NS(C)(=O)=O)cc3OC)c3ccccc3nc2c1
7.34 | CCCCOc1ccc2c(Nc3ccc(NS(C)(=O)=O)cc3OC)c3ccccc3nc2c1
7.36 | COc1cc(NS(C)(=O)=O)ccc1Nc1c2ccccc2nc2cc(OCCO)ccc12
7 | COc1cc(NS(C)(=O)=O)ccc1Nc1c2ccccc2nc2cc(OCC(O)CO)ccc12 (stereo unspecified)
7.35 | CNC(=O)COc1ccc2c(Nc3ccc(NS(C)(=O)=O)cc3OC)c3ccccc3nc2c1
7.36 | COc1cc(NS(C)(=O)=O)ccc1Nc1c2ccccc2nc2cc(OCCCC(N)=O)ccc12
6.09 | COc1cc(NS(C)(=O)=O)ccc1Nc1c2ccccc2nc2ncccc12

pKa | SMILES
6.07 | CCS(=O)(=O)Nc1ccc(Nc2c3ccccc3nc3ncccc23)c(OC)c1
6.04 | CCCS(=O)(=O)Nc1ccc(Nc2c3ccccc3nc3ncccc23)c(OC)c1
6.06 | CCCCS(=O)(=O)Nc1ccc(Nc2c3ccccc3nc3ncccc23)c(OC)c1
6.05 | CCCCCS(=O)(=O)Nc1ccc(Nc2c3ccccc3nc3ncccc23)c(OC)c1
6.03 | CCCCCCS(=O)(=O)Nc1ccc(Nc2c3ccccc3nc3ncccc23)c(OC)c1
6.04 | CCCCCCCS(=O)(=O)Nc1ccc(Nc2c3ccccc3nc3ncccc23)c(OC)c1
5.72 | COc1cc(NS(C)(=O)=O)ccc1Nc1c2ccccc2nc2cc([N+](=O)[O-])ccc12
5.7 | CCS(=O)(=O)Nc1ccc(Nc2c3ccccc3nc3cc([N+](=O)[O-])ccc23)c(OC)c1
5.69 | CCCS(=O)(=O)Nc1ccc(Nc2c3ccccc3nc3cc([N+](=O)[O-])ccc23)c(OC)c1
5.71 | CCCCS(=O)(=O)Nc1ccc(Nc2c3ccccc3nc3cc([N+](=O)[O-])ccc23)c(OC)c1
5.69 | CCCCCS(=O)(=O)Nc1ccc(Nc2c3ccccc3nc3cc([N+](=O)[O-])ccc23)c(OC)c1
5.7 | CCCCCCS(=O)(=O)Nc1ccc(Nc2c3ccccc3nc3cc([N+](=O)[O-])ccc23)c(OC)c1
5.69 | CCCCCCCS(=O)(=O)Nc1ccc(Nc2c3ccccc3nc3cc([N+](=O)[O-])ccc23)c(OC)c1
6.33 | CCCCCCS(=O)(=O)Nc1ccc(Nc2c3ccccc3nc3c(C(N)=O)cccc23)c(OC)c1
6.33 | CCCCCCCS(=O)(=O)Nc1ccc(Nc2c3ccccc3nc3c(C(N)=O)cccc23)c(OC)c1
6.36 | CCCCNC(=O)c1cccc2c(Nc3ccc(NS(C)(=O)=O)cc3OC)c3ccccc3nc12
6.35 | CCCCNC(=O)c1cccc2c(Nc3ccc(NS(=O)(=O)CCC)cc3OC)c3ccccc3nc12
6.36 | CCCCCS(=O)(=O)Nc1ccc(Nc2c3ccccc3nc3c(C(=O)NCCCC)cccc23)c(OC)c1
6.36 | CNC(=O)c1cccc2c(Nc3ccc(NS(C)(=O)=O)cc3OC)c3ccccc3nc12
6.16 | COc1cc(NS(C)(=O)=O)ccc1Nc1c2ccccc2nc2c(C(=O)N(C)C)cccc12
6.18 | COc1cc(NS(C)(=O)=O)ccc1Nc1c2ccccc2nc2c(C(=O)NCC(N)=O)cccc12
6.2 | CNC(=O)CNC(=O)c1cccc2c(Nc3ccc(NS(C)(=O)=O)cc3OC)c3ccccc3nc12
6.34 | COc1cc(NS(C)(=O)=O)ccc1Nc1c2ccccc2nc2c(C(=O)NCC(O)CO)cccc12 (stereo unspecified)
